{"source": "paper PMC3620387", "about": "“Targeting the EGFR/PCNA Signaling Suppresses Tumor Growth of Triple-Negative Breast Cancer Cells with Cell-Penetrating PCNA Peptides” (PLoS ONE, 2013)", "key": {"[1]": {"system": "MDA-MB 231 cells", "test": "WST-1 cell viability assay", "format": "cell-based, human", "conditions": "24 h", "description": "(§1) Cell viability was determined by WST-1 (4-[3-(4-Iodophenyl)-2-(4-nitrophenyl) -2H-5-tetrazolio]-1,3-benzene disulfonate) assay (Roche). Cells were incubated with or without TKI or CPPP. After culturing for another 24 h, one-tenth volume of WST-1 was added at 4 h before harvest, and the absorbance was detected at 450 nm. Cell viability was normalized by the absorbance from the cells without treatment."}, "[2]": {"system": "MDA-MB 468 cells", "test": "WST-1 cell viability assay", "format": "cell-based, human", "conditions": "24 h", "description": "as §1"}, "[3]": {"system": "MDA-MB 231 cells", "test": "Apoptosis assay, Annexin V staining, flow cytometry", "format": "cell-based, human", "conditions": "15 µM, 24 h", "description": "(§2) For apoptosis assay using annexin V staining, cells treated with the CPPP for 24 h and the cells were harvested and resuspended in the binding buffer and then incubated with FITC-conjugated Annexin V and propidium iodide (PI), according to the manufacturer's protocol (BD Biosciences). The percentage of apoptotic cells were assessed by flow cytometry."}, "[4]": {"system": "MDA-MB 468 cells", "test": "Apoptosis assay, Annexin V staining, flow cytometry", "format": "cell-based, human", "conditions": "24 h", "description": "as §2"}, "[5]": {"system": "MDA-MB 468 cells", "test": "Subcutaneous MDA-MB 468 xenograft", "format": "in vivo, nude mice", "conditions": "200 nmol/mouse, intratumoral injection; for tumor volume compared with control or scrambled peptides / tumor mass compared with control or scrambled peptide group: nude mice; for tumor volume compared with control or scrambled peptides: Fig. 5A, S1A; for tumor mass compared with control or scrambled peptide group: end of experiment, Fig. 5B, S1B", "description": "(§3) For subcutaneous implantation, MDA-MB 468 cells (1×10^7 in 100 µL of sterile Dulbecco's phosphate-buffered saline; PBS) were inoculated into nude mice by subcutaneous injection into the flanks. Each group contained 4 mice that were inoculated with tumor cells on both flanks (n = 8). When the tumors were palpable, mice were grouped randomly into 3–4 groups with 4 mice in each group. The mice were then treated with control vehicle, control scrambled peptide, Y211F CPPP, RF6 CPPP, or D-RF6 CPPP, by intratumoral injection. For orthotopic implantation, tumor xenografts were established by injection of Iressa-resistant MDA-MB 468 (IR) cells (1×10^7 resuspended in a 1∶1 mixture of PBS and Matrigel (BD Biosciences) in a total volume of 100 µL) into the mammary fat pad on either side of each 6–8-week old female severe combined immunodeficient (SCID) mice, respectively. When the tumors were palpable, the mice bearing IR tumor xenografts were treated with control vehicle, control scrambled peptide, D-RF6 CPPP (200 nmol/mouse) by intraperitoneal injection. Tumor growth was monitored 3 times/week for five weeks by measuring tumor perpendicular diameters. Tumor volume (V) was calculated using the following formula: V = length×diameter^2×0.5.\n(§4) Figure 5 The effect of CPPP on tumor growth in vivo. (A) Approximately 1×10^7 MDA-MB 468 cells were subcutaneously injected into the flanks of nude mice. When the tumors were palpable, mice were randomly divided into 4 groups and treated with PBS (Control), scrambled peptide for RF6 (Scramble), RF6 CPPP, or D-RF6 CPPP (200 nmol/mouse) by intratumoral injection. Tumor volume was measured the tumor volume at the indicated time point. (B) The weight of each of the harvested tumors from (A) was measured after treatment. (C) Approximately 1×10^7 Iressa-resistant MDA-MB 468 (MDA-MB 468/IR) cells were injected into the mammary fat pad on either side of SCID mice. When the tumors were palpable, mice were randomly divided into 3 groups and treated with PBS (Control), scrambled peptide for D-RF6 (Scramble), or D-RF6 CPPP (200 nmol/mouse) by intratumoral injection. Tumor volume was measured the tumor volume at the indicated time point. (D) The weight of each of the harvested tumors from (C) was measured after treatment. The curves and bars indicate mean ± S.D.; *, p<0.05; **, p<0.01; ***, p<0.001 by t-test. (E) Extracted tumor tissue lysates from (D), the protein levels of EGFR, p-Y211, PCNA and cleaved-caspase-3 were determined by IB.\nSupplementary file pone.0061362.s001.tif: Figure S1 The effect of Y211F CPPP on tumor growth in vivo. (A) Approximately 1×10^7 MDA-MB 468 cells were subcutaneously injected into the flanks of nude mice. When the tumors were palpable, mice were randomly divided into 3 groups and treated with PBS (Control), scrambled peptide for Y211 (Scramble), or Y211F CPPP (200 nmol/mouse) by intratumoral injection. Tumor volume was measured the tumor volume at the indicated time point. (B) The weight of each of the harvested tumors was measured after treatment. The curves and bars indicate mean ± S.D.; *, p<0.05; **, p<0.01; ***, p<0.001 by t-test. (TIF) Click here for additional data file."}, "[6]": {"system": "Iressa-resistant MDA-MB 468 (MDA-MB 468/IR) cells", "test": "Orthotopic Iressa-resistant MDA-MB 468 xenograft (mammary fat pad)", "format": "in vivo, SCID mice", "description": "as §3, §4"}, "[7]": {"system": "MCF10A", "test": "WST-1 cell viability assay", "format": "cell-based", "conditions": "up to 50 µM, 24 h, WST-1, Fig. 1B", "description": "as §1"}, "[8]": {"target": "T1, nEGFR/PCNA (Homo sapiens, UniProt P00533)", "T1 construct": "endogenous in cells; host or cells: MDA-MB 468 human TNBC cells (chromatin lysates)", "test": "Immunoprecipitation/immunoblot of chromatin lysates: nEGFR binding to PCNA", "format": "cell-based", "conditions": "30 µM, 24 h, IP anti-PCNA, IB, Fig. 2B", "description": "Cell extraction, immunoprecipitation and Western blotting were performed as described previously, [29].\nThe fluorescent images were observed under a confocal microscopy."}, "[9]": {"system": "Iressa-resistant MDA-MB 468 (IR)", "test": "WST-1 cell viability assay", "format": "cell-based, human", "conditions": "15 µM, 24 h, Fig. 3E", "description": "(§5) Human triple-negative breast cancer (TNBC) cell lines (MDA-MB 468, and MDA-MB 231) were purchased from American Type Culture Collection. All cells were maintained in DMEM/F12 (1∶1) with 10% FBS. EGFR TKI-resistant TNBC cell lines: Iressa-resistant MDA-MB 468 (IR) and Tarceva-resistant MDA-MB 468 (TR) were established by treatment with gradually increasing concentrations of these drugs for over one month. These TKI-resistant clones were cultured in the presence of 1 µM TKIs. The following peptides were synthesized by MDBio, Inc: Y211F CPPP (Y211F; […]); AK10 CPPP (AK10; […]); TF10 CPPP (TF10; […]); TN8 CPPP (TN8; […]); RK8 CPPP (RK8; […]); RF6 CPPP (RF6; […]); D-RF6 CPPP (D-RF6; […]); Scrambled peptides for Y211F (Scramble; […]); Scrambled peptides for RF6 (Scramble; […]). […]\nas §1, with “Cells were incubated with or without TKI or CPPP.” left out\n(§6) Figure 3 The cytotoxic effect of CPPP in TKI-resistant TNBC cells. […] (E–F) The P-, IR-, or TR-TNBC cells were treated with 15 µM Y211F CPPP for 24 h and the relative cell viability (E) and Annexin V-positive cells (F) were determined. […]"}, "[10]": {"system": "Tarceva-resistant MDA-MB 468 (TR)", "test": "WST-1 cell viability assay", "format": "cell-based, human", "conditions": "15 µM, 24 h, Fig. 3E", "description": "as §5\nas §1, with “Cells were incubated with or without TKI or CPPP.” left out\nas §6"}, "[11]": {"system": "Iressa-resistant MDA-MB 468 (IR)", "test": "Apoptosis assay, Annexin V staining", "format": "cell-based, human", "conditions": "15 µM, 24 h, Fig. 3F", "description": "as §5, §2, §6"}, "[12]": {"system": "Tarceva-resistant MDA-MB 468 (TR)", "test": "Apoptosis assay, Annexin V staining", "format": "cell-based, human", "conditions": "15 µM, 24 h, Fig. 3F", "description": "as §5, §2, §6"}, "[13]": {"system": "MDA-MB 468 cells", "conditions": "30 µM FITC-labeled peptide, 12 h, anti-EGFR staining, confocal microscopy, Fig. 2A", "protocol": "Confocal microscopy was performed as previously described [29].\n(A) MDA-MB 468 cells were treated with 30 µM FITC-labeled scrambled (FITC-Scrambled; top) or Y211F CPPP (FITC-Y211F; bottom) for 12 h. Subsequently, cells were fixed, permeabilized, and stained with anti-EGFR antibody or DAPI. The fluorescent images were observed under a confocal microscopy. The FITC-labeled peptide (green), EGFR (red), and nucleus (blue) are shown."}, "[14]": {"conditions": "extracted tumor tissue lysates, IB, Fig. 5E"}, "[15]": {"conditions": "15 µM Y211F CPPP combined with 1∼8 µM EGFR TKI (Tarceva or Iressa), Fig. 2C-2F"}, "[16]": {"conditions": "indicated concentrations, WST-1, Fig. 1B"}}}
{"sequence": "YGRKKRRQRRRGRFLNFF [D-RF6 CPPP, synthetic retro-inverted D form derivative of RF6 CPPP]", "values": [{"measurement": "growth suppression (relative cell viability) compared with RF6 CPPP", "setting": "[1]; indicated concentrations, Fig. 4F", "value": "enhanced the growth suppression"}, {"measurement": "growth suppression (relative cell viability) compared with RF6 CPPP", "setting": "[2]; indicated concentrations, Fig. 4E", "value": "enhanced the growth suppression"}, {"measurement": "apoptosis activity (Annexin V-positive cells)", "setting": "[3]; Fig. 4G", "value": "enhanced the growth suppression and apoptosis activity"}, {"measurement": "apoptosis activity (Annexin V-positive cells)", "setting": "[4]; 15 µM, flow cytometry, Fig. 4G", "value": "enhanced the growth suppression and apoptosis activity"}, {"measurement": "activity in suppressing tumor growth and reducing tumor volume, on an equimolar basis", "setting": "[5]; compared with Y211F CPPP", "value": "more potent than Y211F CPPP"}, {"measurement": "tumor mass compared with control or scrambled peptides", "setting": "[6]; 200 nmol/mouse, SCID mice, harvested tumors, Fig. 5D", "value": "significantly reduced tumor volume and mass"}, {"measurement": "tumor volume compared with control or scrambled peptides", "setting": "[6]; 200 nmol/mouse, SCID mice, intratumoral (Fig. 5C legend) or intraperitoneal (methods) injection", "value": "significantly reduced tumor volume and mass"}, {"measurement": "PCNA Y211 phosphorylation in tumor tissue", "setting": "[6]; [14]", "value": "inhibited"}, {"measurement": "cleaved caspase-3 in tumor tissue", "setting": "[6]; [14]", "value": "cleaved caspase-3 increased"}]}
{"sequence": "YGRKKRRQRRRGRFLNFF [RF6 CPPP]", "values": [{"measurement": "relative cell viability", "setting": "[2]; 50 µM of each CPPP derivative, Fig. 4B", "value": "minimal effective peptide"}, {"measurement": "apoptosis (Annexin V-positive cells)", "setting": "[4]; 50 µM of each CPPP derivative, Fig. 4C", "value": "minimal effective peptide"}, {"measurement": "tumor volume compared with control or scrambled peptides", "setting": "[5]", "value": "significantly reduced tumor volume"}, {"measurement": "tumor mass compared with control or scrambled peptide group", "setting": "[5]", "value": "significantly smaller tumor mass"}]}
{"sequence": "YGRKKRRQRRRGTFALRFLNFFTK [Y211F CPPP]", "values": [{"measurement": "relative cell viability, combination with EGFR TKI", "setting": "[1]; [15]", "value": "enhanced the effect of both TKIs"}, {"measurement": "cancer cells killed", "setting": "[1]; 50 µM, WST-1, Fig. 1B", "value": "more than 80%"}, {"measurement": "relative cell viability", "setting": "[1]; [16]", "value": "suppressed cell viability"}, {"measurement": "relative cell viability, combination with EGFR TKI", "setting": "[2]; [15]", "value": "enhanced the effect of both TKIs"}, {"measurement": "cancer cells killed", "setting": "[2]; 50 µM, WST-1, Fig. 1B", "value": "more than 80%"}, {"measurement": "relative cell viability", "setting": "[2]; [16]", "value": "suppressed cell viability"}, {"measurement": "relative cell viability", "setting": "[7]", "value": "no effect"}, {"measurement": "apoptotic response (Annexin V-positive cells)", "setting": "[3]; Fig. 1C", "value": "observed only in MDA-MB 468 and MDA-MB 231 cells"}, {"measurement": "apoptotic response (Annexin V-positive cells)", "setting": "[4]; 15 µM, flow cytometry, Fig. 1C", "value": "observed only in MDA-MB 468 and MDA-MB 231 cells"}, {"measurement": "nEGFR binding to PCNA on chromatin", "setting": "[8]", "value": "prevented nEGFR from binding PCNA"}, {"measurement": "relative cell viability compared with parental cells", "setting": "[9]", "value": "more sensitive"}, {"measurement": "relative cell viability compared with parental cells", "setting": "[10]", "value": "more sensitive"}, {"measurement": "Annexin V-positive cells compared with parental cells", "setting": "[11]", "value": "more sensitive"}, {"measurement": "Annexin V-positive cells compared with parental cells", "setting": "[12]", "value": "more sensitive"}, {"measurement": "tumor volume compared with control or scrambled peptides", "setting": "[5]", "value": "significantly reduced tumor volume"}, {"measurement": "tumor mass compared with control or scrambled peptide group", "setting": "[5]", "value": "significantly smaller tumor mass"}, {"measurement": "targeting of EGFR", "setting": "[13]", "value": "specifically targeted EGFR"}]}
